TGI and GI50 data for 13 molecules are collected here from PubChem BioAssay (NCI).

Each structure is given as a SMILES string.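 Briefly, cells in 96-well plates were exposed to five compound concentrations for 48 h, and endpoints were estimated by linear interpolation. GI50 is the concentration that inhibits growth by half. TGI denotes the concentration required for complete inhibition of growth.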 Bounds are passed on as bounds.

Test systems include KM12 colon; SW-620 colon; NCI-H23 lung; CCRF-CEM leukemia; SN12C renal; COLO 205 colon; SK-MEL-5 melanoma; LOX IMVI melanoma; SK-OV-3 ovarian.
Assay in all cases: NCI-60 cell line screen, 48 h

For the molecule `CCOc1ccc(C(CN2CCOCC2)C(C)=O)cc1OC` (stereo not drawn), the TGI in the assay with KM12 colon is 29 µM; in the assay with SW-620 colon, 31.2 µM; in the assay on NCI-H23 lung, 32.9 µM; with CCRF-CEM leukemia, 26.1 µM; in the assay on SN12C renal, 31.2 µM; with COLO 205 colon it was 19.6 µM. Also, the values for the TGI in the assay with SK-MEL-5 melanoma and with LOX IMVI melanoma were 35.2 µM and 31.1 µM, respectively.
`CCCCCCCCCCCCCCCCOC(=O)c1cc(O)cc(C(=O)OCCCCCCCCCCCCCCCC)c1`: the TGI with KM12 colon, in the assay on SW-620 colon, with NCI-H23 lung, in the assay on CCRF-CEM leukemia, in the assay on SN12C renal and in the assay with SK-OV-3 ovarian was more than 100 µM each time. Also, the TGI in the assay on COLO 205 colon, with SK-MEL-5 melanoma and with LOX IMVI melanoma was more than 100 µM in each case.
Turning to `Nc1ccc2c(c1)c(N)nn2C(=O)Nc1ccc(Cc2ccccc2)cc1`, the GI50 with KM12 colon is 3.34 µM; in the assay on SW-620 colon, 4.48 µM; in the assay on NCI-H23 lung, 16.9 µM; in the assay with CCRF-CEM leukemia, 2.07 µM; with SN12C renal, 13.4 µM; in the assay on SK-OV-3 ovarian it was 15.3 µM. For the same molecule, the figures for the GI50 with COLO 205 colon, with SK-MEL-5 melanoma and in the assay with LOX IMVI melanoma were 13.1 µM, 6.52 µM and 3.38 µM, respectively. For the same molecule, the TGI is 15.1 µM with KM12 colon; 18.7 µM in the assay on SW-620 colon; 39.5 µM in the assay on NCI-H23 lung; 18.8 µM in the assay on CCRF-CEM leukemia; 30.9 µM with SN12C renal; 37.7 µM in the assay on SK-OV-3 ovarian. The TGI with COLO 205 colon stood at 26.5 µM; in the assay on SK-MEL-5 melanoma, 19.8 µM; with LOX IMVI melanoma it was 16 µM.
For `Cc1ccc(C(C)C)cc1NC(=O)Nc1ccc([N+](=O)[O-])cc1`, the GI50 was 2.25 µM with KM12 colon; 2.89 µM in the assay with SW-620 colon; 2.49 µM in the assay on NCI-H23 lung; 1.97 µM with CCRF-CEM leukemia; 2.28 µM with SN12C renal; 2.17 µM in the assay with SK-OV-3 ovarian. Besides, the GI50 was 1.67 µM with COLO 205 colon, 1.55 µM with SK-MEL-5 melanoma and 1.99 µM in the assay with LOX IMVI melanoma. Further, the TGI in the assay with KM12 colon worked out at 5.91 µM; in the assay with SW-620 colon it was 10.7 µM; with NCI-H23 lung, 7.97 µM; in the assay with CCRF-CEM leukemia it was 5.53 µM; in the assay with SN12C renal it was 8.97 µM; with SK-OV-3 ovarian it was 5.97 µM. In addition, the figures for the TGI in the assay with COLO 205 colon, with SK-MEL-5 melanoma and with LOX IMVI melanoma were 3.03 µM, 2.9 µM and 4.82 µM, respectively.
Turning to `C/C=C1\C(=O)OC2CCN3CCC(COC(=O)C(C)(O)C(C)C1O)C23` (stereo not drawn), the TGI with KM12 colon, in the assay with SW-620 colon, in the assay with NCI-H23 lung, in the assay with SN12C renal, with SK-OV-3 ovarian and in the assay with COLO 205 colon was more than 100 µM each time. The TGI in the assay with SK-MEL-5 melanoma and in the assay on LOX IMVI melanoma was more than 100 µM in each case.
Turning to `COC(OC)c1cc2c(cc1C(=O)[C@@]13CCC[C@@H]1NC(=O)O3)OCO2`, the TGI with KM12 colon, in the assay on SW-620 colon, in the assay with NCI-H23 lung, with CCRF-CEM leukemia, in the assay with SN12C renal and in the assay on SK-OV-3 ovarian was more than 100 µM in each case. In addition, the TGI in the assay on SK-MEL-5 melanoma is more than 100 µM.
Turning to `CN1CCc2c1nc(-c1ccc([N+](=O)[O-])cc1)c1c2N(C)CC1`, the TGI in the assay on KM12 colon, with SW-620 colon, in the assay on NCI-H23 lung, in the assay with CCRF-CEM leukemia, in the assay with SN12C renal and in the assay on SK-OV-3 ovarian was more than 100 µM in each case. For the same molecule, the TGI with COLO 205 colon, in the assay on SK-MEL-5 melanoma and in the assay on LOX IMVI melanoma was more than 100 µM throughout.
`C[C@]12CC[C@H](OC3CCCCO3)CC1=CC[C@@H]1C2CC[C@]2(C)/C(=N/O)CCC12` (stereo partly drawn): the TGI in the assay with KM12 colon is 32.4 µM; in the assay with SW-620 colon, more than 100 µM; in the assay with NCI-H23 lung, 39.1 µM; with SN12C renal, 31.5 µM; in the assay with SK-OV-3 ovarian it was 82 µM; in the assay on SK-MEL-5 melanoma it was more than 100 µM. In addition, the TGI in the assay on LOX IMVI melanoma amounted to 27.5 µM.
Turning to `CSC1=NCC2(S1)c1ccccc1N(C(=O)OC(C)(C)C)C2N1CCCCC1` (stereo not drawn), the GI50 in the assay on KM12 colon, in the assay on SW-620 colon, in the assay with CCRF-CEM leukemia, in the assay with SN12C renal and in the assay on SK-MEL-5 melanoma was more than 100 µM throughout. The TGI with KM12 colon, with SW-620 colon, in the assay on CCRF-CEM leukemia, in the assay with SN12C renal and with SK-MEL-5 melanoma was more than 100 µM in each case.
For the molecule `COc1ccc(S(=O)(=O)N(C)CC(=O)O)cc1`, the TGI in the assay with KM12 colon, with SW-620 colon, with NCI-H23 lung, in the assay with CCRF-CEM leukemia, in the assay on SN12C renal and with SK-OV-3 ovarian was more than 100 µM in each case. Further, the TGI in the assay with COLO 205 colon, in the assay with SK-MEL-5 melanoma and with LOX IMVI melanoma was more than 100 µM in each case.
For `CC(=O)C1C(=O)N(C(C)C)C[C@@H]2CCC(=O)C[C@H]12` (stereo partly drawn), the TGI in the assay with KM12 colon, in the assay with SW-620 colon, in the assay with NCI-H23 lung, in the assay with CCRF-CEM leukemia, with SN12C renal and in the assay on SK-OV-3 ovarian was more than 100 µM each time. The TGI in the assay with COLO 205 colon, in the assay on SK-MEL-5 melanoma and with LOX IMVI melanoma was more than 100 µM each time.
Turning to `Cc1nc(-n2nc(-c3ccccc3)cc2-c2ccccc2)sc1C(/C=C/c1ccc([N+](=O)[O-])cc1)=N/NC(=O)c1ccncc1`, the TGI in the assay on KM12 colon was 22.4 µM; in the assay with SW-620 colon, more than 100 µM; in the assay on NCI-H23 lung, 40.6 µM; in the assay with CCRF-CEM leukemia, more than 100 µM; with SN12C renal it was more than 100 µM; with SK-OV-3 ovarian it was more than 100 µM. For the same molecule, the TGI with COLO 205 colon turned out to be 58.4 µM; in the assay on SK-MEL-5 melanoma it was 63.7 µM; in the assay with LOX IMVI melanoma it was 48.8 µM.
For `CC1OC(OC2CCC3(C=O)C4CCC5(C)C(C6=CC(=O)OC6)CCC5(O)C4CCC3(O)C2)C(O)C(O)C1O` (stereo not drawn), the TGI with KM12 colon is 0.000298 µM; in the assay on SW-620 colon it was 8.69e-05 µM; in the assay on NCI-H23 lung, 4.11e-05 µM; in the assay with SN12C renal, 3.74e-05 µM; in the assay with SK-OV-3 ovarian, 0.000102 µM; with COLO 205 colon, 0.0025 µM. Besides, the TGI in the assay with LOX IMVI melanoma was 6.73e-05 µM.
